This is an account of results in BindingDB's records for doi:10.1021/jm9606608 (Boehringer Ingelheim (Canada), 1997).

One test has as its target T1, Dimer of Gag-Pol polyprotein [489-587] (Human immunodeficiency virus 1, UniProt P12497).
T1 construct: 489-587
The experiment in a line: Protease Inhibition Assay. The conditions noted are these: pH 5.5; 37 °C. How it is done:
(§1) Sensitivity of HIV-1 protease activity to protease inhibitors was determined by a peptide substrate cleavage assay. Cleavage products and substrate were separated by reversed-phase HPLC on a Perkin-Elmer 3 X 3CR C8 column.
Broadly, the IC50 is the point on the concentration scale where inhibition reaches its midpoint. Higher therefore signals weaker potency. `CCC(CC)NC(=O)C[C@@H](C(=O)NC[C@@H](O)[C@H](Cc1ccccc1)NC(=O)[C@@H](NC(=O)c1ccc2ccccc2n1)C(C)O)C(C)(C)C` (stereo partly drawn) [(2R)-2-tert-butyl-N-[(2R,3S)-2-hydroxy-3-[(2S,3R)-3-hydroxy-2-(quinolin-2-ylformamido)butanamido]-4-phenylbutyl]-N'-(pentan-3-yl)butanediamide]: 3.6 nM corresponded to half-maximal inhibition (IC50).
Same read-out and setting: next, `CCC(CC)NC(=O)C[C@@H](C(=O)NC[C@@H](O)[C@H](Cc1ccccc1)NC(=O)[C@@H](NC(=O)c1cnc2ccccc2n1)C(C)O)C(C)(C)C` (stereo partly drawn) [(2R)-2-tert-butyl-N-[(2R,3S)-2-hydroxy-3-[(2S,3R)-3-hydroxy-2-(quinoxalin-2-ylformamido)butanamido]-4-phenylbutyl]-N'-(pentan-3-yl)butanediamide]: 3 nM.
The same measure, in the same setting: the figure for `CC(C)[C@H](NC(=O)OCc1ccccc1)C(=O)N[C@@H](Cc1ccccc1)[C@H](O)CNC(=O)C1CCCCC1C(=O)NC(C)(C)C` (stereo partly drawn) [benzyl N-[(1S)-1-{[(2S,3R)-4-{[2-(tert-butylcarbamoyl)cyclohexyl]formamido}-3-hydroxy-1-phenylbutan-2-yl]carbamoyl}-2-methylpropyl]carbamate] is 140 nM.
Same read-out and setting: next, `CCC(CC)NC(=O)C[C@@H](C(=O)NC[C@@H](O)[C@H](Cc1ccccc1)NC(=O)[C@@H](NC(=O)OCc1ccccc1)C(C)O)C(C)(C)C` (stereo partly drawn) [benzyl N-[(1S,2S)-1-{[(2S,3R)-4-[(2R)-2-tert-butyl-N-(pentan-3-yl)butanediamido]-3-hydroxy-1-phenylbutan-2-yl]carbamoyl}-2-hydroxypropyl]carbamate]: 8.2 nM.

Another test deals with T2, Dimer of Gag-Pol polyprotein [514-612] (Human immunodeficiency virus 2, UniProt P04584).
T2 construct: 514-612
T2 sequence (P04584 whole entry): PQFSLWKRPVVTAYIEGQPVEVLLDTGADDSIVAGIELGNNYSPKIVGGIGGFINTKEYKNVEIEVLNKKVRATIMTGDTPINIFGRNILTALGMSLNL
The experiment in a line: Protease Inhibition Assay. As to conditions: pH 5.5; 37 °C. How it is done: as §1
Take `CCC(CC)NC(=O)C[C@@H](C(=O)NC[C@@H](O)[C@H](Cc1ccccc1)NC(=O)[C@H](CC(N)=O)NC(=O)c1ccc2ccccc2n1)C(C)(C)C` [(2S)-N-[(2S,3R)-4-[(2R)-2-tert-butyl-N-(pentan-3-yl)butanediamido]-3-hydroxy-1-phenylbutan-2-yl]-2-(quinolin-2-ylformamido)butanediamide]: 6.7 nM corresponded to half-maximal inhibition (IC50).
Still for that read-out and setting: next, `CCC(CC)NC(=O)C[C@@H](C(=O)NC[C@@H](O)[C@H](Cc1ccccc1)NC(=O)[C@@H](NC(=O)c1cnc2ccccc2n1)C(C)C)C(C)(C)C` [(2R)-2-tert-butyl-N-[(2R,3S)-2-hydroxy-3-[(2S)-3-methyl-2-(quinoxalin-2-ylformamido)butanamido]-4-phenylbutyl]-N'-(pentan-3-yl)butanediamide]: 38 nM; `CCC(CC)NC(=O)C[C@@H](C(=O)NC[C@@H](O)[C@H](Cc1ccccc1)NC(=O)[C@@H](NC(=O)c1ccc2ccccc2n1)C(C)C)C(C)(C)C` [(2R)-2-tert-butyl-N-[(2R,3S)-2-hydroxy-3-[(2S)-3-methyl-2-(quinolin-2-ylformamido)butanamido]-4-phenylbutyl]-N'-(pentan-3-yl)butanediamide]: 42 nM; `CCC(CC)NC(=O)C[C@@H](C(=O)NC[C@@H](O)[C@H](Cc1ccccc1)NC(=O)[C@@H](NC(=O)c1cnc2ccccc2n1)C(C)O)C(C)(C)C` (stereo partly drawn) [(2R)-2-tert-butyl-N-[(2R,3S)-2-hydroxy-3-[(2S,3R)-3-hydroxy-2-(quinoxalin-2-ylformamido)butanamido]-4-phenylbutyl]-N'-(pentan-3-yl)butanediamide]: 135 nM.
The same measure, in the same setting: the figure for `CCC(CC)NC(=O)C[C@@H](C(=O)NC[C@@H](O)[C@H](Cc1ccccc1)NC(=O)[C@H](CC(N)=O)NC(=O)c1cnc2ccccc2n1)C(C)(C)C` [(2S)-N-[(2S,3R)-4-[(2R)-2-tert-butyl-N-(pentan-3-yl)butanediamido]-3-hydroxy-1-phenylbutan-2-yl]-2-(quinoxalin-2-ylformamido)butanediamide] is 6.3 nM.
